Read-outs that look alike come from different tables or passages of the source.
Assays:
[1] = tested on: HCT 116 cell line; assay: Cell inhibition assay method A (WST-1, 120 hrs); assay type: cell-based; details: Homo sapiens, HCT-116, method A, read-out: Inhibitor Activity vs HCT 116 cell line (method A)
Protocol: (§1) Cell inhibition assays were carried out using either method A or method B
Cells were seeded in 96W tissue culture plates (1 well=30 mm^2) at a density of […] per well in 50 μL of the appropriate culture medium (see below). 24 hrs later […] of the compound prepared in the same medium was added as 4 fold dilutions to give final concentrations in the range 0.15 nM-2500 nM (n=6 for each concentration). The plates were then incubated at 37° C., 5% CO2 for 120 hrs. Cell proliferation was assessed using WST-1 (a metabolic indicator dye, Roche Cat no. 1 644 807) according to the manufacturers instructions. The results were calculated as percentage of vehicle response and IC50 values represent the concentration of compound that inhibited the vehicle response by 50%.
HCT-116 culture medium —Dulbeccos MEM (Sigma D6546) plus 10% heat inactivated fetal calf serum (Hyclone SH30071 Thermo Fischer Scientific) containing 2 mM Glutamine (Sigma cat no G-7513) and 50 U/ml Penicillin and Streptomycin Sulphate (Sigma Cat no P-0781).

[2] = target: T1, PLK1 (Homo sapiens, UniProt P53350); assay: PLK1 enzyme assay (Z'-LYTE, Invitrogen); assay type: biochemical
T1 construct: purchased Invitrogen (Paisley, UK)
Protocol: The ability of compounds to inhibit PLK-1 kinase activity was measured in an assay performed by Invitrogen (Paisley, UK). The Z′-LYTE™ biochemical assay employs a fluorescence-based, coupled-enzyme format and is based on the differential sensitivity of phosphorylated and non-phosphorylated peptides to proteolytic cleavage. The peptide substrate is labelled with two fluorophores—one at each end—that make up a FRET pair. In the primary reaction, the kinase transfers the gamma-phosphate of ATP to a single serine or threonine residue in a synthetic FRET-peptide. In the secondary reaction, a site-specific protease recognizes and cleaves non-phosphorylated FRET-peptides. Phosphorylation of FRET-peptides suppresses cleavage by the Development Reagent. Cleavage disrupts FRET between the donor (i.e., coumarin) and acceptor (i.e., fluorescein) fluorophores on the FRET-peptide, whereas uncleaved, phosphorylated FRET-peptides maintain FRET. A […] method, which calculates the ratio (the Emission Ratio) of donor emission to acceptor emission after excitation of the donor fluorophore at 400 nm, is used to quantitate reaction progress.
The assay is performed at an ATP concentration at, or close to, the Km. After the 60 minute Kinase Reaction incubation at RT, 5 μL of a 1:8 dilution of Development Reagent is added. The assay plate is incubated for a further 60 minutes at RT and read on a fluorescence plate reader.
Duplicate data points are generated from a ⅓ log dilution series of a stock solution of test compound in DMSO. Nine dilutions steps are made from a top concentration of 10 μM, and a ‘no compound’ blank is included. Data is collected and analysed using XLfit software from IDBS.

[3] = tested on: U937 cell; assay: Cell inhibition assay method B (tritiated thymidine incorporation, 72 hrs); assay type: cell-based; details: Homo sapiens, U-937, read-out: Inhibition of U937 cell proliferation (IC50, nM) (method B)
Protocol: as §1
The plates were then incubated at 37° C., 5% CO2 for 72 hrs.
A tritiated thymidine incorporation assay was used as a measure of cell proliferation. In short, cells were incubated with 0.4 μCi/well for 4 hrs before harvesting onto filtermats. These were dried, meltilex scintillation sheets melted on, then sealed in bags and ^3H emission counted on a Trilux microbeta counter.

[4] = ATP at or close to Km, read-out: Inhibitor Activity vs PLK1

T1 sequence (P53350 whole entry): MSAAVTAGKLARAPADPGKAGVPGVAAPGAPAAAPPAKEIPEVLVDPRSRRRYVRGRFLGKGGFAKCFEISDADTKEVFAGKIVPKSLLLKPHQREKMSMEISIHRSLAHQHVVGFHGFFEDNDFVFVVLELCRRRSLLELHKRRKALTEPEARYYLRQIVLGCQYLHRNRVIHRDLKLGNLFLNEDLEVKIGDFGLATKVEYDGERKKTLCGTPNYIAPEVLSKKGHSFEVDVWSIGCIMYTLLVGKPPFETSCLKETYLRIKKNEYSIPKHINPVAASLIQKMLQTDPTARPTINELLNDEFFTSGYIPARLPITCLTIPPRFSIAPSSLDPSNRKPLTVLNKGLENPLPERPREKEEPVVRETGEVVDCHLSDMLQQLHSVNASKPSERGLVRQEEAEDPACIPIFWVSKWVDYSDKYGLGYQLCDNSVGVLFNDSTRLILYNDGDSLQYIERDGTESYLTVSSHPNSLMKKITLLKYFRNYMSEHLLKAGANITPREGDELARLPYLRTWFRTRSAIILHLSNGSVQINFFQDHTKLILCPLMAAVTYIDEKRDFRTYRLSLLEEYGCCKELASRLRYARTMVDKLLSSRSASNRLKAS

Row | SMILES | IC50 [1] [nM] | IC50 [2, 4] [nM] | IC50 ([2]; ester (for Compound 1: the compound itself, one cell spans ester/acid), read-out: Inhibition of PLK (IC50, nM) ester) [nM] | IC50 [3] [nM]
1 | CC[C@@H]1C(=O)N(C)c2cnc(Nc3ccc(C(=O)NC4CCN(CC[C@H](N)C(=O)OC5CCCC5)CC4)cc3OC)nc2N1C1CCCC1 [Example 22, Cyclopentyl (2S)-2-amino-4-{4-[(4-{[(7R)-8-cyclopentyl-7-ethyl-5-methyl-6-oxo-5,6,7,8-tetrahydropteridin-2-yl]amino}-3-methoxybenzoyl)amino]piperidin-1-yl}butanoate] | < 100 | < 100 | 6 | 0.09
2 | CC[C@@H]1C(=O)N(C)c2cnc(Nc3ccc(C(=O)N4CCNC(C(=O)OC5CCCC5)C4)cc3OC)nc2N1C1CCCC1 (stereo partly drawn) [Example 13, Cyclopentyl 4-(4-{[(7R)-8-cyclopentyl-7-ethyl-5-methyl-6-oxo-5,6,7,8-tetrahydropteridin-2-yl]amino}-3-methoxybenzoyl)piperazine-2-carboxylate] | 100 to 500 | < 100 | – | –
3 | CC[C@@H]1C(=O)N(C)c2cnc(Nc3ccc(C(=O)NCc4ccc(OCC[C@H](N)C(=O)OC5CCCC5)cc4)cc3OC)nc2N1C1CCCC1 [Example 9, Cyclopentyl O-(4-{[(4-{[(7R)-8-cyclopentyl-7-ethyl-5-methyl-6-oxo-5,6,7,8-tetrahydropteridin-2-yl]amino}-3-methoxybenzoyl)amino]methyl}phenyl)-L-homoserinate] | < 100 | 100 to 500 | – | –
4 | CC[C@@H]1C(=O)N(C)c2cnc(Nc3ccc(C(=O)NC4CCN(CC[C@H](N)C(=O)OC(C)(C)C)CC4)cc3OC)nc2N1C1CCCC1 [Example 25, t-Butyl (2S)-2-amino-4-{4-[(4-{[(7R)-8-cyclopentyl-7-ethyl-5-methyl-6-oxo-5,6,7,8-tetrahydropteridin-2-yl]amino}-3-methoxybenzoyl)amino]piperidin-1-yl}butanoate] | < 100 | < 100 | – | –
5 | CC[C@@H]1C(=O)N(C)c2cnc(Nc3ccc(/C=C/C[C@H](N)C(=O)OC4CCCC4)cc3)nc2N1C1CCCC1 [Example 2] | < 100 | < 100 | – | –
6 | CC[C@@H]1C(=O)N(C)c2cnc(Nc3ccc(C(=O)NCCCC[C@H](N)C(=O)OC4CCCC4)cc3OC)nc2N1C1CCCC1 [Example 8, Cyclopentyl N^6-(4-{[(7R)-8-cyclopentyl-7-ethyl-5-methyl-6-oxo-5,6,7,8-tetrahydropteridin-2-yl]amino}-3-methoxybenzoyl)lysinate] | < 100 | < 100 | – | –
7 | CC[C@@H]1C(=O)N(C)c2cnc(Nc3ccc(C(=O)NC4CCN(CCC[C@@H](N)C(=O)OC5CCCC5)CC4)cc3OC)nc2N1C1CCCC1 [Example 27, Cyclopentyl 5-{4-[(4-{[(7R)-8-cyclopentyl-7-ethyl-5-methyl-6-oxo-5,6,7,8-tetrahydropteridin-2-yl]amino}-3-methoxybenzoyl)amino]piperidin-1-yl}-D-norvalinate] | < 100 | < 100 | – | –
8 | CC[C@@H]1C(=O)N(C)c2cnc(Nc3ccc(C(=O)NC4CCN(CC[C@H](N)C(=O)OC5CCCC5)CC4)cc3F)nc2N1C1CCCC1 [Example 30, Cyclopentyl (2S)-2-amino-4-{4-[(4-{[(7R)-8-cyclopentyl-7-ethyl-5-methyl-6-oxo-5,6,7,8-tetra hydropteridin-2-yl]amino}-3-fluorobenzoyl)amino]piperidin-1-yl}butanoate] | < 100 | < 100 | – | –
9 | CC[C@@H]1C(=O)N(C)c2cnc(Nc3ccc(C(=O)Nc4ccc(CCC[C@H](N)C(=O)OC5CCCC5)cc4)cc3OC)nc2N1C1CCCC1 [Example 19, Cyclopentyl 5-{4-[(4-{[(7R)-8-cyclopentyl-7-ethyl-5-methyl-6-oxo-5,6,7,8-tetrahydro-pteridin-2-yl]amino}-3-methoxybenzoyl)amino]phenyl}-L-norvalinate] | < 100 | < 100 | – | –
10 | CC[C@@H]1C(=O)N(C)c2cnc(Nc3ccc(C(=O)NC4C5CN(CC[C@H](N)C(=O)OC6CCCC6)CC54)cc3OC)nc2N1C1CCCC1 (stereo partly drawn) [Example 18, Cyclopentyl (2S)-2-amino-4-{6-[(4-{[(7R)-8-cyclopentyl-7-ethyl-5-methyl-6-oxo-5,6,7,8-tetrahydropteridin-2-yl]amino}-3-methoxybenzoyl)amino]-3-azabicyclo[3.1.01]hex-3-yl}butanoate] | < 100 | < 100 | – | –

Reference: patent US20100216802A1, “PTERIDINE DERIVATIVES AS POLO-LIKE KINASE INHIBITORS USEFUL IN THE TREATMENT OF CANCER” (CHROMA THERAPEUTICS LTD., priority 2006, published 2010)
